Reference: patent US20180111913A1, “SUBSTITUTED BENZOFURAN DERIVATIVES AS NOVEL ANTIMYCOBACTERIAL AGENTS” (priority 2015, published 2018)
Converted amounts (≈) assume the structure as drawn. Read-outs that look alike come from different tables or passages of the source.

Columns and labels:
[1] = test system: human dermal fibroblast (HDF) cells; conditions: for Non-Toxic Concentration: human, 48 h
Mtb strain mc^27000 = assay: microbe, parasite or virus in culture; assay type: cell-based, Mycobacterium tuberculosis
[2] = molecular target: Mtb Pks13-TE domain (wild-type) (Mycobacterium tuberculosis, UniProt I6X8D2); assay: biochemical; assay type: biochemical; conditions: for loss of inhibitory activity / higher IC50 against Pks13-TE compared to the test compound: relative to test compound
Chain of Mtb Pks13-TE domain (wild-type) (I6X8D2 1451-1733): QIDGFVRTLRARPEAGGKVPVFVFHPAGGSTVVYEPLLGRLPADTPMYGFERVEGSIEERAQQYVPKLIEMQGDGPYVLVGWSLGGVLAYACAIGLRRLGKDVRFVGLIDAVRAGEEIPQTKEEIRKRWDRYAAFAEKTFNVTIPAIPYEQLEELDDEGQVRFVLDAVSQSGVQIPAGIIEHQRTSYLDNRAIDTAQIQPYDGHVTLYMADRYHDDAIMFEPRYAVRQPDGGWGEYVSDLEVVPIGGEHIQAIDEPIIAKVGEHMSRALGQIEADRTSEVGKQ

[3] = HDF cell survival relative to DMSO-only control at the first (or only) Non-Toxic Concentration value
[4] = Mycobacterium tuberculosis, Mtb mc^27000, liquid medium, 96-well plates, read-out: MIC
[5] = Mycobacterium tuberculosis, read-out: Pks13 MIC
[6] = Pks13-TE, 20 μM 4-MUH, read-out: IC50
[7] = Pks13 enzyme inhibition, read-out: Pks13 IC50
[8] = Mtb mc^27000, liquid medium, 96-well plates, read-out: MIC
[9] = Mtb mc^27000, liquid medium, 96-well plates
[10] = […], mean ± s.d. of triplicates, NI: no inhibition
[11] = Mtb Pks13-TE domain, mean ± s.d. of triplicates, read-out: IC50
[12] = Mycobacterium tuberculosis, read-out: percentage inhibition observed (incomplete inhibition)

Structure (SMILES) | Survival vs. Control [1, 3] [%] | MIC (Mtb strain mc^27000; [4]) [µM] | MIC (Mtb strain mc^27000; [5]) [µM] | IC50 [2, 6] [nM] | IC50 [2, 7] [nM] | Non-Toxic Concentration [1] [µM] | further results
CCOC(=O)c1c(-c2ccccc2)oc2cc(N)c(O)c(CN3CCCCC3)c12 [compound 27] | 77 | 8 (≈ 3.16 µg/mL) | 8 (≈ 3.16 µg/mL) | 370 | 370 | – | Survival vs. Control ([1]; HDF cell survival relative to DMSO-only control at the second Non-Toxic Concentration value): 114%
O=C(c1c(-c2ccccc2)oc2ccc(O)c(CN3CCCCC3)c12)N1CCCCC1 [compound 42] | 89 | – | > 10 | 740 | 320 | 100 | MIC (Mtb strain mc^27000; [8]): 3.1 µM (≈ 1.3 µg/mL)
CCOC(=O)c1c(-c2ccc(F)cc2)oc2cc(O)cc(CCNC(C)C)c12 [compound 73] | 97 | 2.5 (≈ 0.964 µg/mL) | 2.5 (≈ 0.964 µg/mL) | 2100 | 1500 to 2100 | 12.5 | –
CCOC(=O)c1c(-c2ccccc2)oc2ccc(O)c(CN3CCOCC3)c12 [compound 5] | – | – | – | 710 | – | – | growth inhibition in HDF cells relative to DMSO only control ([1]; up to 40 (unit not given)): did not show any growth inhibition; higher MIC compared to the test compound (Mtb strain mc^27000): 6 fold; MIC (Mtb strain mc^27000; [9]): 13.3 ± 1.6 µM (≈ 5.07 µg/mL); MIC (Mtb strain mc^27000; [10]): 13.3 ± 1.6 µM (≈ 5.07 µg/mL); MIC higher than compound F in whole cell testing (Mtb strain mc^27000; relative to compound F): ~2 fold; IC50 [2, 11]: 710 ± 50 nM; IC50 value lower than compound F against Pks13-TE ([2]; relative to compound F): > 2 fold; loss of inhibitory activity / higher IC50 against Pks13-TE compared to the test compound [2]: ~3 fold
CCOC(=O)c1c(-c2ccccc2)oc2ccc(O)c(CCN3CCCC3)c12 [compound 102] | 91 | 0.7 (≈ 0.266 µg/mL) | – | 2500 | 700 | 1.56 | –
CCOC(=O)c1c(-c2ccccc2)oc2ccc(O)c(CN3CCCCCC3)c12 [compound 4] | – | 4.6 ± 0.3 (≈ 1.81 µg/mL) | – | 280 ± 30 | – | – | growth inhibition in HDF cells relative to DMSO only control [1]: did not show any growth inhibition; higher MIC compared to the test compound (Mtb strain mc^27000): ~2 fold; MIC (Mtb strain mc^27000; Mycobacterium tuberculosis, […], mean ± s.d. of triplicates, NI: no inhibition, read-out: MIC): 4.6 ± 0.03 µM (≈ 1.81 µg/mL); IC50 [2, 11]: 280 ± 30 nM
CNC(=O)c1c(-c2cc(F)c(O)c(F)c2)oc2ccc(O)c(CN3CCCCC3)c12 [compound 64] | 94 | > 40 | – | 1500 | 1500 to 1900 | 100 | Pks13 MIC (Mtb strain mc^27000; whole cell, mc^27000 Mtb, NI at 40 μM): NI (40 μM)
O=C(c1c(-c2ccccc2)oc2ccc(O)c(CN3CCCCC3)c12)N1CCNCC1 [compound 41] | 100 | 20 (≈ 8.39 µg/mL) | 3.1 (≈ 1.3 µg/mL) | 440 | 740 | 100 | –
CC(=O)NCCNC(=O)c1c(-c2ccccc2)oc2ccc(O)c(CN3CCCCC3)c12 [compound 44] | 104 | > 40 | > 40 | 500 | 500 | 50 | –
COC(=O)c1c(-c2ccccc2)oc2cc(O)cc(CNC(C)C)c12 [compound 67] | 97 | 9 (≈ 3.05 µg/mL) | 9 (≈ 3.05 µg/mL) | – | 700 | 25 | –
OCc1c(-c2ccccc2)oc2ccc(O)c(CN3CCCCC3)c12 [compound 65] | 95 | 12.5 (≈ 4.22 µg/mL) | 6 to 12.5 (≈ 2.02 to 4.22 µg/mL) | 240 | 240 | 25 | –
CCOC(=O)c1c(-c2ccc(F)cc2)oc2cc(O)cc(CCNS(C)(=O)=O)c12 [compound 74] | 88 | – | – | – | 20000 | 25 | –
CCOC(=O)c1c(-c2ccc(O)nc2)oc2ccc(O)c(CN3CCCCC3)c12 [compound 58] | 95 | 4 (≈ 1.59 µg/mL) | 4 (≈ 1.59 µg/mL) | – | 360 | 50 | –
CNC(=O)c1c(-c2ccc(O)nc2)oc2cc(O)cc(CN3CCCCC3)c12 [compound 88] | 96 | 2.8 (≈ 1.07 µg/mL) | – | – | 2800 | 50 | –
CCOC(=O)c1c(-c2ccccc2)oc2ccc(O)c(CN3CCC(N4CCCCC4)CC3)c12 [compound 98] | – | – | – | > 20000 | – | – | inhibition at 20 µM (Mtb strain mc^27000; [12]): 40%
CNC(=O)c1c(-c2ccccc2)oc2cc(OCC(=O)OC)cc(CN3CCCCC3)c12 [compound 93] | – | – | – | 10000 | – | – | inhibition at 40 µM (Mtb strain mc^27000; Mycobacterium tuberculosis, at 40 μM, read-out: percentage inhibition observed (incomplete inhibition)): 16%
CC(C)N1Cc2cc(O)cc3oc(-c4ccccc4)c(c23)C1=O [compound 71] | – | > 20 | – | 9000 | – | – | –
COC(=O)c1c(-c2ccccc2)oc2ccc(O)c(CCCN3CCCC3)c12 [compound 104] | – | 1.8 (≈ 0.683 µg/mL) | – | 2000 | – | – | –
CCOC(=O)CCCC1CCN(CCCc2c(O)ccc3oc(-c4ccccc4)c(C(=O)OCC)c23)C1 (stereo not shown) [compound 172] | – | 2.9 (≈ 1.47 µg/mL) | – | 700 | – | – | –
CCOC(=O)c1c(-c2ccccc2)oc2cc(O)cc(CCN)c12 [compound 55] | – | – | – | 4000 | – | – | MIC (Mtb strain mc^27000; [8]): >20 µM
CCOC(=O)c1c(-c2ccccc2)oc2ccc(O)c(CN(C)C)c12 [compound 109] | – | – | – | 1570 ± 150 | – | – | higher MIC compared to the test compound (Mtb strain mc^27000): 3 fold; MIC (Mtb strain mc^27000; [9]): 7.3 ± 0.3 µM (≈ 2.48 µg/mL); MIC (Mtb strain mc^27000; [10]): 7.3 ± 0.3 µM (≈ 2.48 µg/mL); IC50 [2, 11]: 1570 ± 150 nM; loss of inhibitory activity / higher IC50 against Pks13-TE compared to the test compound [2]: > 6 fold
CCOC(=O)c1c(-c2ccccc2)oc2ccc(O)c(CCCN3CC[C@@H]3CO)c12 [compound 212] | – | 1.1 (≈ 0.45 µg/mL) | – | 1940 | – | – | –
CNC(=O)c1c(-c2ccccc2)oc2cc(OCC(N)=O)cc(CN3CCCCC3)c12 [compound 90] | – | – | – | – | – | – | inhibition at 20 µM (Mtb strain mc^27000; [12]): 13%; inhibition at 40 µM ([2]; at 40 μM, read-out: percentage inhibition observed (IC50 column, incomplete inhibition)): 31%
CCOC(=O)c1c(-c2ccccc2)oc2ccc(OC)c(Cc3ccccc3)c12 [compound 19] | – | 50 (≈ 19.3 µg/mL) | – | 50000 | – | – | –
